US4314055A, “3,5-Disubstituted-2,4,6-triiodoanilides of polyhydroxy-monobasic acids” (Mallinckrodt, Inc., priority 1977, dated 1982)
Converted amounts (≈) assume the structure as drawn. Read-outs that look alike come from different tables or passages of the source. Values belong to the compound of their own block, whether it stands above or below them.

Columns and labels:
[1] = test system: dog; assay: tested as a bronchographic agent in a dog; assay type: in vivo
Experimental: (§1) The compound of Example I was tested as a bronchographic agent in a dog with good results. The compound of Example II was employed in intravenous pyelographic studies carried out in dogs. At a dosage of 250 mg. […] At a dosage of 350 mg. […] At a dosage of 350 mg. […] At a dosage of 190 mg. […] The compound of Examples VIII and IX was employed in intrathecal myelographic studies carried out in dogs. At dosages of 282 to 2400 mg. […] The compound of Examples VIII and IX was employed in intracisternal toxicity studies carried out in dogs using the cisterna magna as the route of administration. At a dosage of 1410 mg. […] The compound of Example X was employed in intravenous pyelographic studies carried out in rats. At a dosage of 500 mg. […] At a dosage of 70 mg. […] In a separate study, the compound of Examples XI and XII was administered to dogs by intraspinal administration at a dosage of 70 mg. I/kg.

[2] = test system: Swiss Albino mice; assay: Intracerebral Toxicity in Mice; assay type: in vivo, mouse (Swiss Albino, Charles River)
Experimental: (§2) Toxicity evaluations in accordance with three different techniques were carried out on aqueous solutions of the compounds of Examples I, II, IV, V, VI, VIII, IX, X, XI and XII. The techniques utilized are described below.
2. Intracerebral Toxicity in Mice
Swiss Albino mice (Charles River) were used. Fixed volumes of aqueous solutions of the iodinated compounds were injected intracerebrally via a 27-gauge needle (1/4 inch in length) according to the method of Haley et al. (Br. J. of Pharmac. 12:12-15, 1957). Again in the case of the compounds of Examples I, II and VI, supersaturated solutions were employed. In the case of the compound of Examples VIII and IX, solutions having an iodine concentration of 35% and 42%, respectively, were employed and in the case of the compound of Example X, a solution having an iodine concentration of 40% was employed. The animals were observed immediately following injections and daily throughout a seven day observation period. The LD50 values were calculated by the method of Litchfield and Wilcoxon (J. of Pharmac. and Exptl. Therap. 96:99-113, 1949).

[3] = water solubility; assay type: physicochemical
Experimental: A 15% w/v solution was prepared, seeded and stirred at room temperature.

[4] = test system: Swiss Albino mice; assay: Acute Intravenous Toxicity Studies in Mice; assay type: in vivo, mouse (Swiss Albino, Charles River)
Experimental: as §2
1. Acute Intravenous Toxicity Studies in Mice
Except as noted below, Swiss Albino mice (Charles River) were dosed in the lateral tail vein with solutions of the above-noted iodinated compounds having an iodine concentration of 28.2% with a pH of 7.0-7.2. The solutions were injected at the rate of approximately 1 ml./min. In the case of the compound of Examples I, II and VI, supersaturated solutions having an iodine concentration of 10%, 28% and 28%, respectively, were employed. […] The LD50 values were calculated by the method of Litchfield and Wilcoxon (J. of Pharmac. and Exptl. Therap. 96:99-113, 1949).

[5] = test system: Sprague-Dawley (Carworth) rats; assay: Intracisternal Toxicity in Rats; assay type: in vivo, rat (Sprague-Dawley; settings: two day observation
Experimental: as §2
3. Intracisternal Toxicity in Rats
Sprague-Dawley (Carworth) rats were used. The method used was a variation of the procedure outlined by Melartin et al. (Invest. Rad. 5:13-21, 1970). In the case of the compound of Examples VIII and IX, solutions having an iodine concentration of 35% and 40%, respectively, were employed and in the case of the compound of Example X, a solution having an iodine concentration of 40% was employed. After dosing, the animals were housed individually and observed for immediate reactions and periodically for a two day observation period. The LD50 values were calculated according to the method of Litchfield and Wilcoxon (J. of Pharmac. and Exptl. Therap. 96:99-115, 1949).

[6] = test system: dogs; assay: intravenous pyelographic studies in dogs; assay type: in vivo, dog; settings: 250 mg. I/kg.
Experimental: as §1

[7] = test system: dog; assay: urinary tract visualization after injection into a dog; assay type: in vivo
Experimental: as §1

[8] = test system: rats; assay: intravenous pyelographic studies in rats; assay type: in vivo, rat; settings: 500 mg. I/kg.
Experimental: as §1

[9] = test system: dogs; assay: intracisternal toxicity studies in dogs (cisterna magna route); assay type: in vivo, dog; settings: 1410 mg. I/kg.
Experimental: as §1

[10] = test system: dogs; assay: intrathecal myelographic studies in dogs; assay type: in vivo, dog
Experimental: as §1

[11] = test system: dogs; assay: radiographs after intraspinal administration to dogs; assay type: in vivo, dog; settings: 70 mg. I/kg.
Experimental: as §1

[12] = supersaturated solution, seven day observation
[13] = water, read-out: water solubility
[14] = supersaturated solution, iodine concentration 28%
[15] = fixed volumes of aqueous solutions, seven day observation
[16] = iodine concentration 28.2%, pH 7.0-7.2, approx. 1 ml./min., seven-day observation
[17] = water, initially, read-out: solubility, initial

SMILES: CNC(=O)c1c(I)c(NC(=O)[C@H](O)[C@@H](O)[C@H](O)[C@H](O)CO)c(I)c(C(=O)NC)c1I [Example I, 5-D-Gluconamido-2,4,6-triiodo-N,N'-dimethylisophthalamide]
bronchographic agent test result [1]: good results | LD50 Value Intracerebral (Mice) [2, 12]: > 750 mg. I/kg. body wt. | solubility [3, 13]: 12 mg/mL (≈ 15.7 mM) | LD50 Value I.V. (Mice) ([4]; supersaturated solution, iodine concentration 10%): > 10,000 mg. I/kg. body wt. | LD50 Value Intracisternal (Rats) [5]: > 150 mg. I/kg. body wt.

SMILES: CNC(=O)c1c(I)c(NC(=O)[C@H](O)[C@@H](O)[C@H](O)[C@H](O)CO)c(I)c(C(=O)N(C)C)c1I [Example II, 5-D-Gluconamido-2,4,6-triiodo-N,N,N'-trimethylisophthalamide]
ureters and urinary bladder visualization ([6]; five minutes after injection): the ureters and urinary bladder were visible | kidney visualization ([6]; one minute after injection): kidney shadows were observed | LD50 Value Intracerebral (Mice) [2, 12]: 2,350 mg. I/kg. body wt. | solubility [3, 13]: 284 mg/mL (≈ 365 mM) | LD50 Value I.V. (Mice) [4, 14]: 8,085 mg. I/kg. body wt. | LD50 Value Intracisternal (Rats) [5]: 100 mg. I/kg. body wt.

SMILES: CNC(=O)c1c(I)c(NC(=O)[C@H](O)[C@@H](O)[C@H](O)[C@H](O)CO)c(I)c(N(C)C(C)=O)c1I [Example IV, 3-D-Gluconamido-2,4,6-triiodo-N-methyl-5-(N-methylacetamido)-benzamide]
urinary bladder visualization ([7]; 350 mg. I/kd. (so in the source), 40 minutes after injection): gave a shadow of the urinary bladder | LD50 Value Intracerebral (Mice) [2, 15]: 1,175 mg. I/kg. body wt. | solubility [3, 13]: ≥ 1000 mg/mL | LD50 Value I.V. (Mice) [4, 16]: 6,400 mg. I/kg. body wt. | LD50 Value Intracisternal (Rats) [5]: 75 mg. I/kg. body wt.

SMILES: CNC(=O)c1c(I)c(C(=O)N(C)C)c(I)c(N(C)C(=O)[C@@H](O)[C@H](O)[C@H](O)[C@@H](O)C=O)c1I [Example V, 2,4,6-triiodo-N,N,N'-trimethyl-5-(N-methyl-D-galacturonamido)-isophthalamide]
kidney and ureter visualization ([7]; 350 mg. I/kg., 5 minutes after injection): gave a kidney shadow with partial visualization of the ureters | LD50 Value Intracerebral (Mice) [2, 15]: 1,700 mg. I/kg. body wt. | solubility [3, 13]: ≥ 1000 mg/mL | LD50 Value I.V. (Mice) [4, 16]: 1,700 mg. I/kg. body wt. | LD50 Value Intracisternal (Rats) [5]: 28 mg. I/kg. body wt.

SMILES: CNC(=O)c1c(I)c(NC(C)=O)c(I)c(NC(=O)[C@H](O)[C@@H](O)[C@H](O)[C@H](O)CO)c1I [Example VI, 3-acetamido-5-D-gluconamido-2,4,6-triiodo-N-methylbenzamide]
kidney and ureter visualization ([7]; 190 mg. I/kg., one minute after injection): gave a kidney shadow with partial visualization of the ureters | LD50 Value Intracerebral (Mice) [2, 12]: ~ 2,000 mg. I/kg. body wt. | solubility [3, 13]: 86 mg/mL (≈ 113 mM) | LD50 Value I.V. (Mice) [4, 14]: 11,000 mg. I/kg. body wt. | LD50 Value Intracisternal (Rats) [5]: 180 mg. I/kg. body wt.

solubility [3, 13]: 18.6 mg/mL (≈ 25.3 mM)
SMILES: CNC(=O)c1c(I)c(CO)c(I)c(NC(=O)[C@H](O)[C@@H](O)[C@H](O)[C@H](O)CO)c1I [Example VII, 3-D-gluconamido-5-hydroxymethyl-2,4,6-triiodo-N-methylbenzamide]

SMILES: CNC(=O)c1c(I)c(NC(=O)C(=O)[C@@H](O)[C@H](O)[C@@H](O)CO)c(I)c(N(CCO)C(C)=O)c1I [Example X, 3-[N-(2-hydroxyethyl)acetamido]-2,4,6-triiodo-5-(2-keto-L-gulonamido)-N-methylbenzamide]
urinary bladder contrast ([8]; 10 and 15 minutes after dosing): showed good contrast | collecting pelvis of the right kidney filling ([8]; 10 minutes): showed good filling | kidney and ureter visualization ([8]; five minutes after injection): faint kidney and portions of ureters were observed | LD50 Value Intracerebral (Mice) ([2]; Iodine Conc. 40%): 2,500 mg. I/kg. body wt. | solubility on standing ([3]; after standing several days, analytical sample): a precipitate formed after standing several days | solubility, initial ([3]; initially): 100 % (w/v) | solubility at 504 h ([3]; water, after 21 days): 640 mg/mL (≈ 795 mM) | solubility [3, 17]: 1000 mg/mL (≈ 1240 mM) | LD50 Value I.V. (Mice) [4, 16]: ~ 10,500 mg. I/kg. body wt. | LD50 Value Intracisternal (Rats) ([5]; Iodine Conc. 40%): 405 mg. I/kg. body wt.

SMILES: CNC(=O)c1c(I)c(NC(=O)[C@H](O)[C@@H](O)[C@H](O)[C@H](O)CO)c(I)c(N(CCO)C(C)=O)c1I [Examples VIII and IX, 3-gluconamido-5-[N-(2-hydroxyethyl)acetamido]-2,4,6-triiodo-N-methylbenzamide]
subarachnoid space filling [9]: partial filling of the cerebral subarachnoid space and good cervical and thoracic subarachnoid space filling | filling of subarachnoid space ([10]; intrathecal, 282 to 2400 mg. I/kg., extent depending on volume injected and size of animal): good filling of the subarachnoid space from the cul-de-sac to the thoracic, cervical and cisterna magna | LD50 Value Intracerebral (Mice) ([2]; Iodine Conc. 35%): > 2,679 mg. I/kg. body wt. | LD50 Value Intracerebral (Mice) ([2]; Iodine Conc. 42%): 2,200 mg. I/kg. body wt. | solubility ([3]; water, printed as slightly less than, read-out: aqueous solubility): < 1000 mg/mL | LD50 Value I.V. (Mice) ([4]; Iodine Conc. 40%): 14,500 mg. I/kg. body wt. | LD50 Value I.V. (Mice) [4, 16]: > 13,000 mg. I/kg. body wt. | LD50 Value Intracisternal (Rats) ([5]; Iodine Conc. 35%): > 505 mg. I/kg. body wt. | LD50 Value Intracisternal (Rats) ([5]; Iodine Conc. 40%): 590 mg. I/kg. body wt.

SMILES: CNC(=O)c1c(I)c(NC(=O)[C@H](O)[C@@H](O)[C@H](O)[C@H](O)CO)c(I)c(NC(=O)[C@H](O)[C@@H](O)[C@H](O)[C@H](O)CO)c1I [Examples XI and XII, 3,5-bis-D-gluconamido-2,4,6-triiodo-N-methylbenzamide]
radiographs, filling ([10]; intrathecal injection, 70 mg. I/kg.): fair filling with some degree of scalloping | LD50 Value Intracerebral (Mice) [2, 15]: 1,330 mg. I/kg. body wt. | turbidity of solution ([3]; 15% w/v solution, seeded and stirred at room temperature): turbidity developed within two hours | solubility thermodynamic ([3]; water, 15% w/v solution seeded, stirred at room temperature, filtered, filtrate aliquot evaporated to constant weight at 85° C.): 120 mg/mL (≈ 133 mM) | solubility at 24 h ([3]; water, after 24 hr., read-out: aqueous solubility after 24 hr.): < 150 mg/mL | solubility [3, 17]: 1000 mg/mL (≈ 1110 mM) | LD50 Value I.V. (Mice) [4, 16]: 20,500 mg. I/kg. body wt. | LD50 Value Intracisternal (Rats) [5]: > 560 mg. I/kg. body wt. | radiographs, definition of lumbar and sacral spinal spaces [11]: the lumbar and sacral spinal spaces were well defined

solubility [3, 13]: 37.5 mg/mL (≈ 48.4 mM)
SMILES: CNC(=O)c1c(I)c(NC(=O)C(=O)[C@@H](O)[C@H](O)[C@@H](O)CO)c(I)c(C(=O)N(C)C)c1I [III, 2,4,6-Triiodo-5-(2-keto-L-gulonamido)-N,N,N'-trimethylisophthalamide]
